Data taken from patent publication US11866450B2, “Modulators of Cystic Fibrosis Transmembrane Conductance regulator, pharmaceutical compositions, methods of treatment, and process for making the modulators” (priority 2018, dated 2024).
Where “and” joins values, the source holds several entries; their conditions need not be identical. Equal values may be shown once. Read-outs that look alike come from different tables or passages of the source.

Tests used:
[1] = snar bond, DMSO
[2] = molecular target: CFTR-mediated chloride transport (Homo sapiens, UniProt P13569); format: cell-based; settings: enteroid cells incubated with test compound 18-24 hours, acute 10 μM forskolin and 300 nM Compound III; for Max. Activity: % of chloride transport with 3 μM Compound A, 3 μM Compound II and 300 nM acute Compound III triple combination control
In short: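 Membrane-potential fluorescence AUC over 15 min quantified CFTR chloride transport after acute forskolin (10 μM), IBMX (100 μM) and Compound III (300 nM) in chloride-free buffer. Human enteroid cells were pretreated with compound for 18–24 h; % Activity is relative to 3 μM Compound A + 3 μM Compound II + 300 nM Compound III.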

[3] = from Cc1c(S(=O)(=O)NC(=O)c2ccc(-n3ccc(OCC(C)(C)C(F)(F)F)n3)nc2Cl)cnn1CCCC1CNC(C)(C)C1, 14-membered ring, K2CO3/CsF/3A MS, 25.9 mM, 150.0 °C

Sequence of CFTR-mediated chloride transport (P13569 whole entry, looked up): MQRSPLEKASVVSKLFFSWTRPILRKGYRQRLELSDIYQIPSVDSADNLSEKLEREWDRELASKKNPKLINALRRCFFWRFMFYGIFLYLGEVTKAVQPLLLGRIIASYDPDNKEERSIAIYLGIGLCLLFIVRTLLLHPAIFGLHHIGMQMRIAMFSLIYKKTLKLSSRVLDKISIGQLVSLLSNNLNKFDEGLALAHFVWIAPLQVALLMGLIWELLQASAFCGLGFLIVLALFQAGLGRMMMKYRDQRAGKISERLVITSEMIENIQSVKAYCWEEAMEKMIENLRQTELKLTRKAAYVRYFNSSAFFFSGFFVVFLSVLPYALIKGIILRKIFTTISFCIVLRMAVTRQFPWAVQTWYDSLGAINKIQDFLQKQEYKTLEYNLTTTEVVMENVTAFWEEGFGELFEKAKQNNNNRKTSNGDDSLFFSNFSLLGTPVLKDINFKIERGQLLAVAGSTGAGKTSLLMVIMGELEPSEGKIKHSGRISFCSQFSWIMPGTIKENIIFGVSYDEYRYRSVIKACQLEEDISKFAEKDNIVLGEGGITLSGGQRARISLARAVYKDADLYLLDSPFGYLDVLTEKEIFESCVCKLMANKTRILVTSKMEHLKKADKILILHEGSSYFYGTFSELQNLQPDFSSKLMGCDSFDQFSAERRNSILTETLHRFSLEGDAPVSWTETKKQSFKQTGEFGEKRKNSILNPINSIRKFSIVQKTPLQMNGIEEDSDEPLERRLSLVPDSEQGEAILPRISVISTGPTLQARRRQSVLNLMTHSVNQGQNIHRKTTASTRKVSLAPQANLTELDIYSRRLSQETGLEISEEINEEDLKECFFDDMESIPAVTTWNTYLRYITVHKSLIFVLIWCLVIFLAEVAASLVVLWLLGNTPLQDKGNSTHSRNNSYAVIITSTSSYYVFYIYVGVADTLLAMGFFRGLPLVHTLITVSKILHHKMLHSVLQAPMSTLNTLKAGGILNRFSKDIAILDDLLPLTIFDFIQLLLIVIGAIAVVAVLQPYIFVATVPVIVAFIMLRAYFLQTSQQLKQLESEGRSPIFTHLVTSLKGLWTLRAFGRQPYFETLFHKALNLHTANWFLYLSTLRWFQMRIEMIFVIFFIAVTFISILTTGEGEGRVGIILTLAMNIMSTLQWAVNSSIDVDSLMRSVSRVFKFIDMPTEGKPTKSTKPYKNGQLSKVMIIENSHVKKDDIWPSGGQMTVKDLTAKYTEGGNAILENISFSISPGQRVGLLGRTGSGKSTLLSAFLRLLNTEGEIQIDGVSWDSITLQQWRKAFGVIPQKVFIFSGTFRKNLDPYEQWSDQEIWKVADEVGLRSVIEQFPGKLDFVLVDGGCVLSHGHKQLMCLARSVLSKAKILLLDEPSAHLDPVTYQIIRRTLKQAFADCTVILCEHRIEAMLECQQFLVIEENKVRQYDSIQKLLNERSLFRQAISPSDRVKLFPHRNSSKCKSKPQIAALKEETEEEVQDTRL

## CC1(C)CC2CCCNc3cccc(n3)S(=O)(=O)NC(=O)c3ccc(Cl)nc3N1C2 (centres unmarked)
[1]; from CC1(C)CC(CCCNc2cccc(S(=O)(=O)NC(=O)c3ccc(Cl)nc3Cl)n2)CN1, 15-membered ring, K2CO3/CsF/3A MS, 82.2 mM, 140.0 °C
  ring closure, yield after HPLC: 38%

## CC1(C)CC2CCCn3ccc(n3)S(=O)(=O)NC(=O)c3ccc(Cl)nc3N1C2 (centres unmarked)
[1]; from CC(C)(C)OC(=O)N1CC(CCCn2nccc2S(=O)(=O)NC(=O)c2ccc(Cl)nc2Cl)CC1(C)C, 14-membered ring, K2CO3/CsF/3A MS, 89.2 mM, 140.0 °C, 2 steps
  ring closure, yield after HPLC: 12%

## CC1(C)CC2CCCn3nccc3S(=O)(=O)NC(=O)c3ccc(Cl)nc3N1C2 (centres unmarked)
[1]; from tert-butyl 4-[3-[3-1(2,6-dichloropyridine-3-carbonyl)sulfamoyl]pyrazol-1-yl]propyl]-2,2-dimethyl-pyrrolidine-1-carboxylate, TFA (Boc off), CsF/K2CO3/3A MS, 89.2 mM, 140.0 °C, 2 steps
  ring closure, yield after HPLC: 4%

## CC1(C)CC2CCNc3cccc(n3)S(=O)(=O)NC(=O)c3ccc(-n4ccc(OCCCC5(C(F)(F)F)CC5)n4)nc3N1C2 (centres unmarked)
[1]; from CC1(C)CC(CCNc2cccc(S(=O)(=O)NC(=O)c3ccc(-n4ccc(OCCCC5(C(F)(F)F)CC5)n4)nc3Cl)n2)CN1, 14-membered ring, K2CO3/CsF/3A MS, 128.0 mM, 150.0 °C
  ring closure, yield after HPLC: 43%

## CC1(C)CCC2CCCNc3cccc(n3)S(=O)(=O)NC(=O)c3ccc(Cl)nc3N21 (centres unmarked)
[1]; from CC1(C)CCC(CCCNc2cccc(S(=O)(=O)NC(=O)c3ccc(Cl)nc3Cl)n2)N1, 14-membered ring, K2CO3/CsF/4A MS, 63.7 mM, 150.0 °C
  ring closure, yield after HPLC: 24%

## CC1(C)CCC2CCCOc3cccc(c3)S(=O)(=O)NC(=O)c3ccc(-n4ccc(OCCC5(C(F)(F)F)CC5)n4)nc3N21 (centres unmarked)
[1]; from CC(C)(C)OC(=O)N1C(CCCOc2cccc(S(=O)(=O)NC(=O)c3ccc(-n4ccc(OCCC5(C(F)(F)F)CC5)n4)nc3Cl)c2)CCC1(C)C, 14-membered ring, K2CO3, then CsF, 64.2 mM, 170.0 °C, 2 steps
  ring closure, yield after HPLC: 4%

## Cc1c2cnn1CCCCC1CN(c3nc(-n4ccc(OCCC5(C(F)(F)F)CC5)n4)ccc3C(=O)NS2(=O)=O)C(C)(C)C1 (centres unmarked)
[1]; from Cc1c(S(=O)(=O)NC(=O)c2ccc(-n3ccc(OCCC4(C(F)(F)F)CC4)n3)nc2Cl)cnn1CCCCC1CNC(C)(C)C1, 15-membered ring, K2CO3/CsF, 130.1 mM, 150.0 °C
  ring closure, yield after HPLC: 13%

## Cc1c2cnn1CCC[C@@H]1CN(c3nc(-n4ccc(OCCC5(C(F)(F)F)CC5)n4)ccc3C(=O)NS2(=O)=O)C(C)(C)C1
[1]; from Cc1c(S(=O)(=O)NC(=O)c2ccc(-n3ccc(OCCC4(C(F)(F)F)CC4)n3)nc2Cl)cnn1CCC[C@@H]1CNC(C)(C)C1, 14-membered ring, K2CO3/CsF, 37.8 mM, 160.0 °C
  ring closure, yield after HPLC: 6% and 16%

## Cc1ccc2nc1NCCCC1CN(c3nc(-n4ccc(OCCC5(C(F)(F)F)CC5)n4)ccc3C(=O)NS2(=O)=O)C(C)(C)C1 (centres unmarked)
[1]; from Cc1ccc(S(=O)(=O)NC(=O)c2ccc(-n3ccc(OCCC4(C(F)(F)F)CC4)n3)nc2Cl)nc1NCCCC1CNC(C)(C)C1, 15-membered ring, K2CO3/CsF/4A MS, 61.3 mM, 140.0 °C, 16.0 h
  ring closure, yield after HPLC: 42%

## Cc1cn2nc1S(=O)(=O)NC(=O)c1ccc(-n3ccc(OCCC(C4CC4)C4CC4)n3)nc1N1CC(CCC2)CC1(C)C (centres unmarked)
[1]; from Cc1cn(CCCC2CNC(C)(C)C2)nc1S(=O)(=O)NC(=O)c1ccc(-n2ccc(OCCC(C3CC3)C3CC3)n2)nc1Cl, 14-membered ring, K2CO3/CsF/3A MS, 58.8 mM, 150.0 °C
  ring closure, yield after HPLC: 38%

## [2H]C([2H])(Oc1ccn(-c2ccc3c(n2)N2C[C@@H](CCCNc4nc(ccc4OCc4ccccc4)S(=O)(=O)NC3=O)CC2(C)C)n1)C([2H])([2H])C1C2(CC2)C12CC2
[1]; from [2H]C([2H])(Oc1ccn(-c2ccc(C(=O)NS(=O)(=O)c3ccc(OCc4ccccc4)c(NCCC[C@@H]4CN(C(=O)OC(C)(C)C)C(C)(C)C4)n3)c(Cl)n2)n1)C([2H])([2H])C1C2(CC2)C12CC2, 15-membered ring, K2CO3/4A MS, 100.9 mM, 140.0 °C, 2 steps
  ring closure, yield after HPLC: 44%

## Cc1c2cnn1CCCC1CN(c3nc(-n4ccc(OCC(C)(C)C(F)(F)F)n4)ccc3C(=O)NS2(=O)=O)C(C)(C)C1 (single isomer, unassigned; atropisomer 1)
[1]; [3]
  ring closure, yield after HPLC: 10%

## Cc1c2cnn1CCCC1CN(c3nc(-n4ccc(OCC(C)(C)C(F)(F)F)n4)ccc3C(=O)NS2(=O)=O)C(C)(C)C1 (single isomer, unassigned; atropisomer 2)
[1]; [3]
  ring closure, yield after HPLC: 4%

## CC1(C)CC2CCNc3cccc(n3)S(=O)(=O)NC(=O)c3ccc(-n4ccc(OCCC(C5CC5)C5CC5)n4)nc3N1C2 (single isomer, unassigned; enantiomer 1)
[1]; from CC1(C)CC(CCNc2cccc(S(=O)(=O)NC(=O)c3ccc(-n4ccc(OCCC(C5CC5)C5CC5)n4)nc3Cl)n2)CN1, 14-membered ring, K2CO3/CsF/3A MS, 24.9 mM, 150.0 °C
  ring closure, yield after HPLC: 41%

## CC1(C)CC2CCCNc3cccc(n3)S(=N)(=O)NC(=O)c3ccc(-n4ccc(OCCC5(C(F)(F)F)CC5)n4)nc3N1C2 (centres unmarked) [Compound 262, 2-imino-12,12-dimethyl-8-(3-{2-[1-(trifluoromethyl)cyclopropyl]ethoxy}-1H-pyrazol-1-yl)-2λ^6-thia-3,9,11,18,23-pentaazatetracyclo[17.3.1.111,14.05,10]tetracosa-1(23),5,7,9,19,21-hexaene-2,4-dione]
[2]
  EC50: < 1000 nM
  Max. Activity: +++ (+++ is >60%)

## CC1(C)CC2CCCNc3cccc(n3)S(=N)(=O)NC(=O)c3ccc(-n4ccc(OCCC5(C(F)(F)F)CC5)n4)nc3N1C2 (centres unmarked) [Compound 263, 2-imino-12,12-dimethyl-8-(3-{2-[1-(trifluoromethyl)cyclopropyl]ethoxy}-1H-pyrazol-1-yl)-2λ^6-thia-3,9,11,18,23-pentaazatetracyclo[17.3.1.111,14.05,10]tetracosa-1(23),5,7,9,19,21-hexaene-2,4-dione]
[2]
  EC50: < 1000 nM
  Max. Activity: ++ (++ is 30-60%)

## CC1(C)C[C@@H]2CCCNc3cc(O)cc(n3)S(=O)(=O)NC(=O)c3ccc(-n4ccc(OCCC5C6(CC6)C56CC6)n4)nc3N1C2 [Compound 264, (14S)-8-[3-(2-{Dispiro[2.0.2.1]heptan-7-yl}ethoxy)-1H-pyrazol-1-yl]-21-hydroxy-12,12-dimethyl-2λ^6-thia-3,9,11,18,23-pentaazatetracyclo[17.3.1.111,14.05,10]tetracosa-1(23),5,7,9,19,21-hexaene-2,2,4-trione]
[2]
  EC50: < 1000 nM
  Max. Activity: +++ (+++ is >60%)

## CC1(C)C[C@@H]2CCCNc3cc(O)cc(n3)S(=O)(=O)NC(=O)c3ccc(-n4ccc(OCCCC5(C(F)(F)F)CC5)n4)nc3N1C2 [Compound 265, (14S)-21-Hydroxy-12,12-dimethyl-8-(3-{3-[1-(trifluoromethyl)cyclopropyl]propoxy}-1H-pyrazol-1-yl)-2λ^6-thia-3,9,11,18,23-pentaazatetracyclo[17.3.1.111,14.05,10]tetracosa-1(22),5,7,9,19(23),20-hexaene-2,2,4-trione]
[2]
  EC50: < 1000 nM
  Max. Activity: +++ (+++ is >60%)

## Cc1c2cnn1CCCC1CN(c3nc(-n4ccc(OCC(C)(C)C(F)(F)F)n4)ccc3C(=O)NS2(=O)=O)C(C)(C)C1 (centres unmarked) [Compound 280, 20,20,22-trimethyl-4-[3-(3,3,3-trifluoro-2,2-dimethylpropoxy)-1H-pyrazol-1-yl]-10λ^6-thia-1,3,9,13,14-pentaazatetracyclo[16.2.1.111,14.02,7]docosa-2,4,6,11(22),12-pentaene-8,10,10-trione]
[2]
  EC50: < 1000 nM
  Max. Activity: ++ (++ is 30-60%)

## Cc1c2cnn1CCCC1CN(c3nc(-n4ccc(OCC(C)(C)C(F)(F)F)n4)ccc3C(=O)NS2(=O)=O)C(C)(C)C1 (centres unmarked) [Compound 282, 20,20,22-trimethyl-4-[3-(3,3,3-trifluoro-2,2-dimethylpropoxy)-1H-pyrazol-1-yl]-10λ^6-thia-1,3,9,13,14-pentaazatetracyclo[16.2.1.111,14.02,7]docosa-2,4,6,11(22),12-pentaene-8,10,10-trione]
[2]
  EC50: > 3000 nM
  Max. Activity: + (+ is <30%)

## [2H]c1ccc2nc1NCCC[C@@H]1CN(c3nc(-n4ccc(OCC([2H])([2H])C5C6(CC6)C56CC6)n4)ccc3C(=O)NS2(=O)=O)C(C)(C)C1 [Compound 298, (14S)-8-[3-(2-{dispiro[2.0.2.1]heptan-7-yl}-2,2-dideuterio-ethoxy)-1H-pyrazol-1-yl]-12,12-dimethyl(20-deuterio)-2λ^6-thia-3,9,11,18,23-pentaazatetracyclo[17.3.1.111,14.05,10]tetracosa-1(23),5,7,9,19,21-hexaene-2,2,4-trione]
[2]
  EC50: < 1000 nM
  Max. Activity: +++ (+++ is >60%)

## [2H]c1ccc2nc1NCCC[C@@H]1CN(c3nc(-n4ccc(OCCC5C6(CC6)C56CC6)n4)ccc3C(=O)NS2(=O)=O)C(C)(C)C1 [Compound 300, (14S)-8-[3-(2-{dispiro[2.0.2.1]heptan-7-yl}ethoxy)-1H-pyrazol-1-yl]-12,12-dimethyl(20-deuterio)-2λ^6-thia-3,9,11,18,23-pentaazatetracyclo[17.3.1.111,14.05,10]tetracosa-1(23),5,7,9,19,21-hexaene-2,2,4-trione]
[2]
  EC50: < 1000 nM
  Max. Activity: +++ (+++ is >60%)

## [2H]c1ccc2nc1NCCC[C@@H]1CN(c3nc(-n4ccc(OC([2H])([2H])C([2H])([2H])C5C6(CC6)C56CC6)n4)ccc3C(=O)NS2(=O)=O)C(C)(C)C1 [Compound 301, (14S)-8-[3-(2-{dispiro[2.0.2.1]heptan-7-yl}-1,1,2,2-tetradeuterio-ethoxy)-1H-pyrazol-1-yl]-12,12-dimethyl(20-deuterio)-2λ^6-thia-3,9,11,18,23-pentaazatetracyclo[17.3.1.111,14.05,10]tetracosa-1(23),5,7,9,19,21-hexaene-2,2,4-trione]
[2]
  EC50: < 1000 nM
  Max. Activity: +++ (+++ is >60%)
